# Results published in patent publication US20210252104A1, “ANTIBACTERIAL PEPTIDE MONOMERS AND COMBINATIONS FOR CO-THERAPY” (ARREVUS, INC., priority 2018, published 2021).
# Like-named read-outs stand apart in the source and are kept apart here. Positions of bridges follow the written chain, without caps; N, C: chain ends. Non-standard residues stand in square brackets, D forms with d. Residues, ends and D or L forms follow the SMILES beside them. Chains are numbered I, II in the order given. *: point of attachment. X2 = CN(C)C(=N[C@@H](CCCNC(=N)N)C(=O)*)N(C)C; aThr = C[C@H](O)[C@H](N)C(=O)O; Ac6c = NC1(C(=O)O)CCCCC1; Dab = NCC[C@H](N)C(=O)O; Nva = CCC[C@H](N)C(=O)O; Pentanoyl = CCCCC(=O)*; Butyryl = CCCC(=O)*; NHNH2 = NN*
# Columns and labels:
# in vitro = conditions: rat, H-4-II-E cells (ATCC CRL-1548)
# [1] = system: A. baumannii strain (BAA-1605); experiment: FIC checkerboard assay (combinations); type: cell-based; conditions: with imipenem (or colistin)
# K. pneumoniae K97/09 [2] = experiment: FIC checkerboard assay (combinations); type: cell-based; conditions: for Effect of combining antimicrobials on MIC: K97/09, with imipenem or colistin
# K. pneumoniae K97/09 [3] = system: K. pneumoniae K97/09
# [4] = system: Burkholderia pseudomallei 1026b; type: in vivo; conditions: for B. pseudomallei load in survivals (CFU/spleen) / total number of samples analyzed/samples with CFU > 10^8: day 62; for B. pseudomallei load in survivals (CFU/spleen): mean of samples with <10^8 CFU/spleen; for Number of deaths: every 6 h for 21 days, 10 mice, to day 62; for total number of samples analyzed/samples with CFU > 10^8: spleens
# [5] = system: Acinetobacter baumannii BAA-1805 (MACI)
# [6] = system: A. baumannii strain (BAA-1605); experiment: microbe, parasite or virus in culture; type: cell-based
compound,measurement,setting,value
"CC(C)C[C@H](NC(=O)[C@H](Cc1ccc(O)cc1)NC(=O)[C@@H]1CCCN1C(=O)[C@H](CCCNC(=N)N)NC(=O)[C@@H]1CCCN1C(=O)[C@H](CCCCN)NC(=O)[C@H](CC(=O)O)NC(=O)[C@@H]1CCCN1C(=O)[C@H](CCCNC(=N)N)NC(=O)C1(N)CCCCC1)C(=O)N1CCC[C@H]1C(=O)N[C@@H](CCCNC(=N)N)C(=O)N1CCC[C@H]1C(=O)N[C@@H](CCCNC(=N)N)C(=O)N1CCC[C@H]1C(=O)N1CCC[C@H]1C(=O)N[C@@H](CCCNC(=N)N)C(=O)N1CCC[C@H]1C(=O)N[C@H](C(=O)N[C@@H](CCCNC(=N)N)C(=O)O)C(C)C [Example 6, Chex-RPDKPRPYLPRPRPPRPVR-OH] (H-[Ac6c]RPDKPRPYLPRPRPPRPVR-OH)",MIC,P. aeruginosa ATCC 47085,>100 µM
same,MIC,K. Pneumoniae ATCC 13883,2.0 ± 0.1 µM
same,MIC,A. Baumannii ATCC 19606,>100 µM
same,CC50,in vitro,48.1 ± 3.4 µM
same,MIC,E. Coli ATCC 29222,6.7 ± 1.3 µM
CCC[C@H](NC(=O)[C@H](CCC(=O)O)NC(=O)[C@@H](N)[C@H](C)O)C(=O)N[C@H](C(=O)N[C@@H](C)C(=O)N[C@@H](CC(C)C)C(=O)N[C@@H](CO)C(=O)N[C@@H](CCCNC(=N)N)C(=O)NC1(C(N)=O)CCCCC1)C(C)C [Allo-aca] (H-[aThr]E[Nva]VALSR[Ac6c]-NH2),Effect of combining antimicrobials on MIC,[1],failed to exert any improvement in the MIC values
same,Effect of combining antimicrobials on MIC,K. pneumoniae K97/09 [2],failed to exert any improvement in the MIC values
same,MIC,K. pneumoniae K97/09 [3]; K97/09,> 256 µg/mL
"Ac-RPDKPRPYLPRPRPPRPVR-NH2 [Example 2, Ac-RPDKPRPYLPRPRPPRPVR-NH2]",MIC,P. aeruginosa ATCC 47085,>100 µM
same,MIC,K. Pneumoniae ATCC 13883,2.0 ± 0.2 µM
same,MIC,A. Baumannii ATCC 19606,>100 µM
same,MIC,E. Coli ATCC 29222,3.6 ± 0.1 µM
CC(C)(O/N=C(\C(=O)N[C@@H]1C(=O)N2C(C(=O)[O-])=C(C[n+]3ccccc3)CS[C@H]12)c1csc(N)n1)C(=O)O [Ceftazidime],Median survival (days post-challenge),[4]; Ceftazidime 150 mg/kg ip,56.5 days post-challenge
same,B. pseudomallei load in survivals (CFU/spleen),[4]; Ceftazidime 150 mg/kg ip,2.6 × 10^5 CFU/spleen
same,Number of deaths,[4]; Ceftazidime 150 mg/kg ip,6
same,total number of samples analyzed/samples with CFU > 10^8,[4]; Ceftazidime 150 mg/kg ip,4/1
same,Median survival (days post-challenge),[4]; Ceftazidime 300 mg/kg ip,(>50% survival)
same,B. pseudomallei load in survivals (CFU/spleen),[4]; Ceftazidime 300 mg/kg ip,2.4 × 10^5 CFU/spleen
same,Number of deaths,[4]; Ceftazidime 300 mg/kg ip,3
same,total number of samples analyzed/samples with CFU > 10^8,[4]; Ceftazidime 300 mg/kg ip,3/1
same,Survival rate at the 62-day endpoint,[4]; ceftazidime monotherapy 150 mg/kg,40%
same,Survival rate at the 62-day endpoint,[4]; ceftazidime monotherapy 300 mg/kg,70%
"CCCC(=O)N[C@@H](CCCNC(=N)N)C(=O)N1CCC[C@H]1C(=O)N[C@@H](CC(=O)O)C(=O)N[C@@H](CCCCN)C(=O)N1CCC[C@H]1C(=O)N[C@@H](CCCNC(=N)N)C(=O)N1CCC[C@H]1C(=O)N[C@@H](Cc1ccc(O)cc1)C(=O)N[C@@H](CC(C)C)C(=O)N1CCC[C@H]1C(=O)N[C@@H](CCCNC(=N)N)C(=O)N1CCC[C@H]1C(=O)N[C@@H](CCCNC(=N)N)C(=O)N1CCC[C@H]1C(=O)N1CCC[C@H]1C(=O)N[C@@H](CCCNC(=N)N)C(=O)N1CCC[C@H]1C(=O)N[C@H](C(=O)N[C@@H](CCCNC(=N)N)C(N)=O)C(C)C [Example 3, Bu-RPDKPRPYLPRPRPPRPVR-NH2] (Butyryl-RPDKPRPYLPRPRPPRPVR-NH2)",MIC,P. aeruginosa ATCC 47085,96.3 ± 3.2 µM
same,MIC,K. Pneumoniae ATCC 13883,2.2 ± 0.4 µM
same,MIC,A. Baumannii ATCC 19606,>100 µM
same,MIC,E. Coli ATCC 29222,6.5 ± 2.6 µM
"I: H-[Ac6c]RPDKPRPYLPRPRPPRPVR[Dab]-NH2 / II: H-[Ac6c]RPDKPRPYLPRPRPPRPVR (amide I:21-II:C; C-terminus assumed) [Example A3-APO, (H-Chex-Arg-Pro-Asp-Lys-Pro-Arg-Pro-Tyr-Leu-Pro-Arg-Pro-Arg-Pro-Pro-Arg-Pro-Val-Arg)2-Dab]",MACI MIC,[5]; BAA-1805,32 to 64 µg/mL
same,KPC MIC,K. pneumoniae K97/09 [3]; K97/09,32 to 64 µg/mL
"CC(C)C[C@H](NC(=O)[C@H](Cc1ccc(O)cc1)NC(=O)[C@@H]1CCCN1C(=O)[C@H](CCCNC(=N)N)NC(=O)[C@@H]1CCCN1C(=O)[C@H](CCCCN)NC(=O)[C@H](CC(=O)O)NC(=O)[C@@H]1CCCN1C(=O)[C@H](CCCNC(=N)N)NC(=O)C1(N)CCCCC1)C(=O)N1CCC[C@H]1C(=O)N[C@@H](CCCNC(=N)N)C(=O)N1CCC[C@H]1C(=O)N[C@@H](CCCNC(=N)N)C(=O)N1CCC[C@H]1C(=O)N1CCC[C@H]1C(=O)N[C@@H](CCCNC(=N)N)C(=O)N1CCC[C@H]1C(=O)N[C@H](C(=O)N[C@@H](CCCNC(=N)N)C(=O)NN)C(C)C [Example 7, Chex-RPDKPRPYLPRPRPPRPVR-NH-NH2] (H-[Ac6c]RPDKPRPYLPRPRPPRPVR-NHNH2; N-terminus assumed)",MIC,P. aeruginosa ATCC 47085,28.9 ± 2.7 µM
same,MIC,K. Pneumoniae ATCC 13883,1.7 ± 0.1 µM
same,MIC,A. Baumannii ATCC 19606,52.5 ± 9.5 µM
same,MIC,E. Coli ATCC 29222,4.0 ± 1.5 µM
"I: H-[Ac6c]RPDKPRPYLGRPRPPRPVR[Dab]-NH2 / II: H-[Ac6c]RPDKPRPYLGRPRPPRPVR (amide I:21-II:C) [Gly11, (H-Chex-Arg-Pro-Asp-Lys-Pro-Arg-Pro-Tyr-Leu-Gly-Arg-Pro-Arg-Pro-Pro-Arg-Pro-Val-Arg)2-Dab-NH2]",MACI MIC,[5]; Acinetobacter baumannii (MACI),>256 µg/mL
same,Effect of combining antimicrobials on MIC,[1],failed to exert any improvement in the MIC values
same,Effect of combining antimicrobials on MIC,K. pneumoniae K97/09 [2],failed to exert any improvement in the MIC values
same,KPC MIC,K. pneumoniae K97/09 [3]; K97/09,>256 µg/mL
"CC(C)C[C@H](NC(=O)[C@H](Cc1ccc(O)cc1)NC(=O)[C@@H]1CCCN1C(=O)[C@H](CCCNC(=N)N)NC(=O)[C@@H]1CCCN1C(=O)[C@H](CCCCN)NC(=O)[C@H](CC(=O)O)NC(=O)[C@@H]1CCCN1C(=O)[C@H](CCCNC(=N)N)N=C(N(C)C)N(C)C)C(=O)N1CCC[C@H]1C(=O)N[C@@H](CCCNC(=N)N)C(=O)N1CCC[C@H]1C(=O)N[C@@H](CCCNC(=N)N)C(=O)N1CCC[C@H]1C(=O)N1CCC[C@H]1C(=O)N[C@@H](CCCNC(=N)N)C(=O)N1CCC[C@H]1C(=O)N[C@H](C(=O)N[C@@H](CCCNC(=N)N)C(N)=O)C(C)C [Example 5, Gu-RPDKPRPYLPRPRPPRPVR-NH2] (X2-PDKPRPYLPRPRPPRPVR-NH2; N-terminus assumed)",MIC,P. aeruginosa ATCC 47085,64.7 ± 2.1 µM
same,MIC,K. Pneumoniae ATCC 13883,1.5 ± 0.4 µM
same,MIC,A. Baumannii ATCC 19606,>100 µM
same,MIC,E. Coli ATCC 29222,5.8 ± 2.2 µM
"CCCCC(=O)N[C@@H](CCCNC(=N)N)C(=O)N1CCC[C@H]1C(=O)N[C@@H](CC(=O)O)C(=O)N[C@@H](CCCCN)C(=O)N1CCC[C@H]1C(=O)N[C@@H](CCCNC(=N)N)C(=O)N1CCC[C@H]1C(=O)N[C@@H](Cc1ccc(O)cc1)C(=O)N[C@@H](CC(C)C)C(=O)N1CCC[C@H]1C(=O)N[C@@H](CCCNC(=N)N)C(=O)N1CCC[C@H]1C(=O)N[C@@H](CCCNC(=N)N)C(=O)N1CCC[C@H]1C(=O)N1CCC[C@H]1C(=O)N[C@@H](CCCNC(=N)N)C(=O)N1CCC[C@H]1C(=O)N[C@H](C(=O)N[C@@H](CCCNC(=N)N)C(N)=O)C(C)C [Example 4, Va-RPDKPRPYLPRPRPPRPVR-NH2] (Pentanoyl-RPDKPRPYLPRPRPPRPVR-NH2)",MIC,P. aeruginosa ATCC 47085,82.0 ± 5.0 µM
same,MIC,K. Pneumoniae ATCC 13883,2.1 ± 0.0 µM
same,MIC,A. Baumannii ATCC 19606,>100 µM
same,MIC,E. Coli ATCC 29222,5.6 ± 1.8 µM
colistin,MACI MIC,[5]; Acinetobacter baumannii (MACI),<0.5 µg/mL
same,MIC,[6],< 0.5 µg/mL
same,ΣFIC,K. pneumoniae K97/09 [2],0.08
same,KPC MIC,K. pneumoniae K97/09 [3],64 µg/mL
same,MIC,K. pneumoniae K97/09 [3],64 µg/mL
